The results in this text go back to patent US10898481B2 (priority 2018, dated 2021).

In assay [1] the target is hADORA1/CHO (hA1 expressing) cells (Homo sapiens (Human), UniProt P30542). Description: cell-based. The conditions noted are these: FLIPR inhibition, 10 μM adenosine, read-out: cAMP & FLIPR IC50 (nM) hA1.
Another assay has as its target hA2a/CHO (Homo sapiens (Human), UniProt P29274). Description: cAMP inhibition assay in hA2a/CHO cells, 10 μM adenosine.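 Note: compounds added to cells 30 min ahead of adenosine, then a further 30 min at 37 °C with adenosine before cAMP detection.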 The class given is cell-based. Conditions: read-out: cAMP & FLIPR IC50 (nM) hA2a.
In the next assay the target is hA2b/CHO (Homo sapiens (Human), UniProt P29275). The assay is described as follows: cAMP inhibition assay in hA2b/CHO cells, 10 μM adenosine.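 Note: cells exposed to compound 30 min at 37 °C, then stimulated with adenosine a further 30 min, cAMP read after 60 min at room temperature.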 In kind it is cell-based. Conditions: read-out: cAMP & FLIPR IC50 (nM) hA2b.
Sequence of hA2b/CHO (P29275 whole entry): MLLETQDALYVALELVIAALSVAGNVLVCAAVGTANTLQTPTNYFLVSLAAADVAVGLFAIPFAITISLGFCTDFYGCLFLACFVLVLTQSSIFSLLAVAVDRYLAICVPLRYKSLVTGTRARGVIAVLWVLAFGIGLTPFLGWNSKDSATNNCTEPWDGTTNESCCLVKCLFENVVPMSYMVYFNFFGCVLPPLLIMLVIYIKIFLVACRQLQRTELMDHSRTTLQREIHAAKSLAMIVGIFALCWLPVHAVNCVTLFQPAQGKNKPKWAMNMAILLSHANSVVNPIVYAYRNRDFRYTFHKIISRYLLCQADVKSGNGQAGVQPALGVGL
In a further assay the target is mA2a/CHO (Mus musculus (Mouse), UniProt Q60613). The assay is described as follows: cAMP inhibition assay in mA2a/CHO cells, 10 μM adenosine.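 Note: compounds preincubated 30 min at 37 °C before the adenosine challenge, then 30 min further stimulation, readout after 60 min detection reagent incubation at room temperature in 384-well plates.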 In kind it is cell-based. The conditions noted are these: read-out: cAMP & FLIPR IC50 (nM) mA2a.
Sequence of mA2a/CHO (Q60613 whole entry): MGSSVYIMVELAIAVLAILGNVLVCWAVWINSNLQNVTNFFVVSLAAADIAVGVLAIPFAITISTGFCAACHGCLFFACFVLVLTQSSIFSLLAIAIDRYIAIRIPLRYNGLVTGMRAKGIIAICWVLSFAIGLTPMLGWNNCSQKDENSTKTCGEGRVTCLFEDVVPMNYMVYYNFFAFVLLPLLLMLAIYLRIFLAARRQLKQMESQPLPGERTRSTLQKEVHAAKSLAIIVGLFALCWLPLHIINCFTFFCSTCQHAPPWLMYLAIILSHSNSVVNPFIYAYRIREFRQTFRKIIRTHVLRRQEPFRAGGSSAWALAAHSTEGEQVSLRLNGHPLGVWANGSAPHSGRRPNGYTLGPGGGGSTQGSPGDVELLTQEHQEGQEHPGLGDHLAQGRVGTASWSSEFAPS

Sequence of hA2a/CHO (P29274 whole entry): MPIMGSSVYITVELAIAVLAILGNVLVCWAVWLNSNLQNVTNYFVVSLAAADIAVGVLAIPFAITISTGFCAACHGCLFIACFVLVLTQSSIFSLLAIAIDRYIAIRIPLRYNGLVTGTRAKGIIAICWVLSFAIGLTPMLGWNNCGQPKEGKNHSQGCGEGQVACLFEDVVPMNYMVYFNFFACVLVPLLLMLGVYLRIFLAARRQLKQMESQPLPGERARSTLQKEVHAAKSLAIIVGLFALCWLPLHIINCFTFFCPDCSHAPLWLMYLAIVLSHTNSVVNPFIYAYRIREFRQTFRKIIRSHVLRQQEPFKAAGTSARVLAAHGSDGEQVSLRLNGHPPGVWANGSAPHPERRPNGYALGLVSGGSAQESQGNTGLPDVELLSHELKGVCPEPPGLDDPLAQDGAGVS
Sequence of hADORA1/CHO (hA1 expressing) cells (P30542 whole entry): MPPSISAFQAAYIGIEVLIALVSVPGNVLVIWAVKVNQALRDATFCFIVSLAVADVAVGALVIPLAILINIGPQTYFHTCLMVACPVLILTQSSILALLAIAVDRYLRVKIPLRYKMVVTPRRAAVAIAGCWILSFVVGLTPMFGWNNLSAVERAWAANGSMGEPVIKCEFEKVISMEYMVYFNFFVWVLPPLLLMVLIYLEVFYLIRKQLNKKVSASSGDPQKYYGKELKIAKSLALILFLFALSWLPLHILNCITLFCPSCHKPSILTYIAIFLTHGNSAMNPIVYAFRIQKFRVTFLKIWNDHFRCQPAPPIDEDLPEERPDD
Protocol for hA2a/CHO: (§1) hA2a/CHO, hA2b/CHO, hA3/CHO and mA2a/CHO (Genscript) were plated at 5×10^3 cells/well into 384-well polystyrene plates at the day of experiment. Compounds were pre-incubated with cells for 30 min at 37° C., 5% CO2. Then 10 μM adenosine was added to the cells and incubated for 30 min at 37° C., 5% CO2. Detection reagent (CISBIO) was added and the plates were incubated for 60 min at room temperature. The signal was captured by Envision.
Protocol for hA2b/CHO: as §1
Protocol for mA2a/CHO: as §1

As for `Nc1ccnc(CNC(=O)c2nc(-c3ccc4nccn4c3)c(-c3ncco3)nc2N)n1` [Example 95, 3-amino-N-[(4-aminopyrimidin-2-yl)methyl]-6-[imidazo[1,2-a]pyridin-6-yl]-5-(1,3-oxazol-2-yl)pyrazine-2-carboxamide], the IC50 in assay [1] was 10000 nM; on hA2a/CHO, 69 nM; at hA2b/CHO, 78 nM; at mA2a/CHO it was 667 nM.
Regarding `Nc1nc(-c2ncco2)c(-c2ccc3nccn3c2)nc1C(=O)NCc1cscn1` [Example 45, 3-amino-6-[imidazo[1,2-a]pyridin-6-yl]-5-(1,3-oxazol-2-yl)-N-[(1,3-thiazol-4-yl)methyl]pyrazine-2-carboxamide], the IC50 in assay [1] worked out at 10000 nM; on hA2a/CHO it was 94 nM; at hA2b/CHO, 912 nM; at mA2a/CHO, 566 nM.
In the case of `Cc1cnc2ccc(-c3nc(C(=O)N[C@@H]4CCN(C)C4)c(N)nc3-c3ccc(F)cc3)cn12` [Example 144, (R)-3-amino-5-(4-fluorophenyl)-6-(3-methylimidazo[1,2-a]pyridin-6-yl)-N-(1-methylpyrrolidin-3-yl)pyrazine-2-carboxamide], the IC50 was found to be 10000 nM in assay [1], 4.6 nM on hA2a/CHO, 1410 nM on hA2b/CHO and 61 nM on mA2a/CHO.
With `COc1ccccc1CNC(=O)c1nc(-c2cc(C)nc(C)c2)c(-c2ccccc2)nc1N` [Example 93, 3-amino-6-(2,6-dimethylpyridin-4-yl)-N-(2-methoxybenzyl)-5-phenylpyrazine-2-carboxamide], the IC50 is 8 nM on hA2a/CHO, 354 nM at hA2b/CHO and 127 nM at mA2a/CHO.
Turning to `Cc1cc(-c2nc(C(=O)NCc3ncccc3F)c(N)nc2-c2ccc(F)cc2)cc(C)n1` [Example 1, 3-amino-6-(2,6-dimethylpyridin-4-yl)-5-(4-fluorophenyl)-N-((3-fluoropyridin-2-yl)methyl)pyrazine-2-carboxamide], the IC50 was 151 nM at hA2a/CHO, at least 10000 nM at hA2b/CHO and 1060 nM on mA2a/CHO.
Regarding `COc1ccc(F)cc1CNC(=O)c1nc(-c2cc(C)nc(C)c2)c(-c2ccc(F)cc2)nc1N` [Example 92, 3-amino-6-(2,6-dimethylpyridin-4-yl)-N-(5-fluoro-2-methoxybenzyl)-5-(4-fluorophenyl)pyrazine-2-carboxamide], the IC50 on hA2a/CHO is 41 nM; at hA2b/CHO, at least 10000 nM; on mA2a/CHO it was 216 nM.
Turning to `Cc1cc(-c2nc(C(=O)NCc3c(F)cccc3F)c(N)nc2-c2cnn(C)c2)cc(C)n1` [Example 64, 3-amino-N-(2,6-difluorobenzyl)-6-(2,6-dimethylpyridin-4-yl)-5-(1-methyl-1H-pyrazol-4-yl)pyrazine-2-carboxamide], the IC50 at hA2a/CHO was 52 nM; on hA2b/CHO, at least 10000 nM; on mA2a/CHO, at least 10000 nM.
For `COc1ccccc1CNC(=O)c1nc(-c2ccc(=O)n(C(C)C)c2)c(-c2ccc(F)cc2)nc1N` [Example 70, 3-amino-5-(4-fluorophenyl)-6-(1-isopropyl-6-oxo-1,6-dihydropyridin-3-yl)-N-(2-methoxybenzyl)pyrazine-2-carboxamide], the IC50 at hA2a/CHO was 10 nM; on hA2b/CHO, at least 10000 nM; at mA2a/CHO, 5.2 nM.
For the compound `COc1cccc(F)c1CNC(=O)c1nc(-c2cc(C)nc(C)c2)c(-c2ccc(F)cc2)nc1N` [Example 90, 3-amino-6-(2,6-dimethylpyridin-4-yl)-N-(2-fluoro-6-methoxybenzyl)-5-(4-fluorophenyl)pyrazine-2-carboxamide], the results for the IC50 on hA2a/CHO, on hA2b/CHO and on mA2a/CHO were 4 nM, 781 nM and 95 nM, respectively.
`COc1ccccc1CNC(=O)c1nc(-c2cc(C)nc(C)c2)c(-c2ccc(F)cc2)nc1N` [Example 89, 3-amino-6-(2,6-dimethylpyridin-4-yl)-5-(4-fluorophenyl)-N-(2-methoxybenzyl)pyrazine-2-carboxamide]: the IC50 at hA2a/CHO came out at 17 nM; at hA2b/CHO, 5620 nM; on mA2a/CHO it was 297 nM.
As to `COc1ccccc1CNC(=O)c1nc(-c2ccc(=O)n(C)c2)c(-c2ccc(F)cc2)nc1N` [Example 67, 3-amino-5-(4-fluorophenyl)-N-(2-methoxybenzyl)-6-(1-methyl-6-oxo-1,6-dihydropyridin-3-yl)pyrazine-2-carboxamide], the IC50 amounted to 6.4 nM at hA2a/CHO, 67 nM at hA2b/CHO and 25 nM on mA2a/CHO.
In the case of `Cc1ccn(-c2nc(N)c(C(=O)Nc3ccccc3OC(F)F)nc2-c2ccc(=O)n(C)c2)n1` [Example 59, 3-amino-N-(2-(difluoromethoxy)phenyl)-5-(3-methyl-1H-pyrazol-1-yl)-6-(1-methyl-6-oxo-1,6-dihydropyridin-3-yl)pyrazine-2-carboxamide], the IC50 was 29 nM at hA2a/CHO, at least 10000 nM on hA2b/CHO and 66 nM on mA2a/CHO.
Consider `Cc1cnc2ccc(-c3nc(C(=O)NCC4CCCCN4C)c(N)nc3-c3ncco3)cn12` (single isomer, unassigned; isomer 2) [Example 125, 3-amino-6-(3-methylimidazo[1,2-a]pyridin-6-yl)-N-((1-methylpiperidin-2-yl)methyl)-5-(oxazol-2-yl)pyrazine-2-carboxamide (isomer 2)], for which the IC50 was 1440 nM on hA2a/CHO, at least 10000 nM on hA2b/CHO and at least 10000 nM on mA2a/CHO.
As to `COc1ccccc1CNC(=O)c1nc(-c2cc(C)c(=O)n(C)c2)c(-c2ccc(F)cc2)nc1N` [Example 82, 3-amino-6-(1,5-dimethyl-6-oxo-1,6-dihydropyridin-3-yl)-5-(4-fluorophenyl)-N-(2-methoxybenzyl)pyrazine-2-carboxamide], the IC50 at hA2a/CHO is 19 nM; at hA2b/CHO it was 276 nM; at mA2a/CHO it was 59 nM.
With `COc1ncccc1CNC(=O)c1nc(-c2cc(C)nc(C)c2)c(-c2ccc(F)cc2)nc1N` [Example 66, 3-amino-6-(2,6-dimethylpyridin-4-yl)-5-(4-fluorophenyl)-N-((2-methoxypyridin-3-yl)methyl)pyrazine-2-carboxamide], the values for the IC50 on hA2a/CHO, on hA2b/CHO and on mA2a/CHO were 107 nM, at least 10000 nM and 730 nM, respectively.
For `Nc1nc(-c2ccc(F)cc2)c(-c2ccc(=O)n(C3COC3)c2)nc1C(=O)NCc1c(F)cccc1F` [Example 77] the same measures were 17 nM, 358 nM and 26 nM.
In the case of `COc1ccccc1CNC(=O)c1nc(-c2cc(C)nc(Cl)c2)c(-c2ccc(F)cc2)nc1N` [Example 68, 3-amino-6-(2-chloro-6-methylpyridin-4-yl)-5-(4-fluorophenyl)-N-(2-methoxy-benzyl)pyrazine-2-carboxamide], the IC50 at hA2a/CHO amounted to 7.5 nM; on hA2b/CHO it was 952 nM; on mA2a/CHO, 64 nM.
`CCn1cc(-c2nc(C(=O)NCc3ccccc3OC)c(N)nc2-c2ccc(F)cc2)ccc1=O` [Example 69, 3-amino-6-(1-ethyl-6-oxo-1,6-dihydro-pyridin-3-yl)-5-(4-fluorophenyl)-N-(2-methoxybenzyl)pyrazine-2-carboxamide]: the IC50 on hA2a/CHO was determined as 15 nM; on hA2b/CHO it was 213 nM; at mA2a/CHO it was 20 nM.
With `Cc1cc(-c2nc(C(=O)NCc3c(F)cccc3F)c(N)nc2-c2ccc(C)o2)cc(C)n1` [Example 62, 3-amino-N-(2,6-difluorobenzyl)-6-(2,6-dimethylpyridin-4-yl)-5-(5-methylfuran-2-yl)pyrazine-2-carboxamide], the concentration for half-maximal inhibition (IC50) on hA2a/CHO was 1.8 nM; on hA2b/CHO it was at least 10000 nM; at mA2a/CHO it was 28 nM.
Consider `Cc1cc(-c2nc(C(=O)Nc3ccccc3OC(F)F)c(N)nc2-n2ccc(C)n2)cc(N)n1` [Example 60, 3-amino-6-(2-amino-6-methylpyridin-4-yl)-N-(2-(difluoromethoxy)phenyl)-5-(3-methyl-1H-pyrazol-1-yl)pyrazine-2-carboxamide], for which the IC50 is 24 nM on hA2a/CHO, at least 10000 nM on hA2b/CHO and 150 nM on mA2a/CHO.
For `Cc1cc(-c2nc(C(=O)NCc3ccccc3C(F)(F)F)c(N)nc2-c2ccc(F)cc2)cc(C)n1` [Example 53, 3-amino-6-(2,6-dimethylpyridin-4-yl)-5-(4-fluorophenyl)-N-(2-(trifluoromethyl)benzyl)pyrazine-2-carboxamide], the IC50 at hA2a/CHO was 60 nM; on hA2b/CHO, at least 10000 nM; at mA2a/CHO, 529 nM.
As for `Cc1cnc2ccc(-c3nc(CNC(=O)[C@H]4CCCN4C)c(N)nc3-c3ccc(F)cc3)cn12` [Example 157, (2R)—N-[[3-amino-5-(4-fluorophenyl)-6-[3-methylimidazo[1,2-a]pyridin-6-yl]pyrazin-2-yl]methyl]-1-methylpyrrolidine-2-carboxamide], the IC50 on hA2a/CHO turned out to be 0.3 nM; on hA2b/CHO, 59 nM; at mA2a/CHO, 2.9 nM.
For the compound `COc1ccccc1CNC(=O)c1nc(-c2cc(C)nc(C)c2)c(-c2cnn(C)c2)nc1N` [Example 63, 3-amino-6-(2,6-dimethylpyridin-4-yl)-N-(2-methoxybenzyl)-5-(1-methyl-1H-pyrazol-4-yl)pyrazine-2-carboxamide], the figures for the IC50 on hA2a/CHO, on hA2b/CHO and at mA2a/CHO were 33 nM, at least 10000 nM and 601 nM, respectively.
As to `Cc1cc(-c2nc(C(=O)NCc3ccccc3OC(F)F)c(N)nc2-c2ccc(F)cc2)cc(C)n1` [Example 91, 3-amino-N-(2-(difluoromethoxy)benzyl)-6-(2,6-dimethylpyridin-4-yl)-5-(4-fluorophenyl)pyrazine-2-carboxamide], the values for the IC50 on hA2a/CHO, on hA2b/CHO and on mA2a/CHO were 8.9 nM, 1420 nM and 72 nM, respectively.

Broadly, the IC50 is the concentration that inhibits the measured activity by half.
